# Values joined by “and” are separate entries in the source; they are usually repeats but may differ in a detail not shown here. Identical values can stand only once.
# System: patients with prior myocardial infarction (CARE study)
# Assay: CARE aligned analysis (prospective and case/control design, white males): association of genotypes with pravastatin efficacy (Tables 13, 15)
# Type: in vivo, human
# Conditions: for 2 Rare Alleles n/total, Pravastatin Patients / 2 Rare Alleles (%), Pravastatin Patients / Pravastatin Patients (%) / Pravastatin Patients n/total: F&NF MI; for 2 rare alleles n/total (%), pravastatin patients / Pravastatin vs placebo odds ratio, 0 rare alleles / Pravastatin vs placebo odds ratio, 1 rare allele / Pravastatin vs placebo odds ratio, 2 rare alleles: CARE, F MI/SD/NF MI; for Pravastatin Patients (%) / Pravastatin Patients n/total: WM
# Method: The data presented in Table 8 based on an association of genotypes with pravastatin efficacy of the CARE samples were further analyzed and presented in Table 13. The further analysis was performed to align the data obtained from the analysis of the CARE samples, which was a prospective study, to the analysis of the WOSCOP samples, which was a case/control study. Table 13 also presents an analysis of the association of genotypes with pravastatin efficacy in the WOSCOPs samples. Relative to the analysis performed on the data presented in Table 8, there are two significant differences to determine if the SNP influenced pravastatin efficacy. Data obtained from the CARE samples were separated by study design into two groups, those in the prospective study design group and those in the case/control study design group. The original care study contained 16 protocol defined cardiovascular disease defined endpoints and 150 other phenotypes. […] The control groups used to compare the data were also divided into two groups, the “all possible” control group and the “cleaner” control group. […] Because the participants in the WOSCOPs trial were all white males, only data obtained from white males in the CARE study were analysed. Data from the “all possible” and “cleaner” controls were compared to data obtained from the cases in the prospective study design while only data from “cleaner” controls were compared to cases in the case/control study design. The data from the case/control cohorts were analysed using conditional logistic regression (as opposed to logistic regression used for the original anaylsis).
# The anaylsis was refined as described for both Tables 13 and 14.
# [1] = F7 hCV783184, CARE Case/Control
# [2] = F13A1 hCV11972326, CARE Case/Control
# [3] = FABP1 hCV16173091, CARE Case/Control
# [4] = FCAR hCV7841842, CARE Case/Control
# [5] = FN1 hCV9506149, CARE Case/Control
# [6] = GALC hCV25922440, CARE Prospective
# [7] = GAPD hCV8921288, CARE Case/Control
# [8] = GAPD hCV8921288, CARE Prospective
# [9] = HLA-DPB1 hCV8851065, 0 Rare Alleles, CARE Case/Control, All Possible controls
# [10] = HLA-DPB1 hCV8851065, 0 Rare Alleles, CARE Case/Control, Cleaner controls
# [11] = HLA-DPB1 hCV8851065, 1 Rare Allele, CARE Case/Control, All Possible controls
# [12] = HLA-DPB1 hCV8851065, 1 Rare Allele, CARE Case/Control, Cleaner controls
# [13] = HLA-DPB1 hCV8851065, Case/Control
# [14] = HLA-DPB1 hCV8851065, Prospective
# [15] = HLA-DPB1 hCV8851084, 0 Rare Alleles, CARE Case/Control, All Possible controls
# [16] = HLA-DPB1 hCV8851084, 0 Rare Alleles, CARE Case/Control, Cleaner controls
# [17] = HLA-DPB1 hCV8851084, 0 Rare Alleles, CARE Prospective, Cleaner controls
# [18] = HLA-DPB1 hCV8851084, 1 Rare Allele, CARE Case/Control, All Possible controls
# [19] = HLA-DPB1 hCV8851084, 1 Rare Allele, CARE Case/Control, Cleaner controls
# [20] = HLA-DPB1 hCV8851084, 1 Rare Allele, CARE Prospective, Cleaner controls
# [21] = HLA-DPB1 hCV8851084, Case/Control
# [22] = HLA-DPB1 hCV8851084, Prospective
# [23] = HLA-DPB1 hCV8851085, 0 Rare Alleles, CARE Case/Control, All Possible controls
# [24] = HLA-DPB1 hCV8851085, 0 Rare Alleles, CARE Case/Control, Cleaner controls
# [25] = HLA-DPB1 hCV8851085, 0 Rare Alleles, CARE Prospective, All Possible controls
smiles,measurement,setting,value
CC[C@H](C)C(=O)O[C@H]1C[C@H](O)C=C2C=C[C@H](C)[C@H](CC[C@@H](O)C[C@@H](O)CC(=O)O)[C@H]21 [pravastatin],"2 Rare Alleles n/total, Pravastatin Patients","F7 hCV783138, CARE Prospective",1/13 and 1/9
same,"2 Rare Alleles (%), Pravastatin Patients",[1],(14.3%)
same,"2 Rare Alleles n/total, Pravastatin Patients",[1],2/14
same,"2 Rare Alleles (%), Pravastatin Patients","F7 hCV783184, CARE Prospective",(14.3%)
same,"2 Rare Alleles n/total, Pravastatin Patients","F7 hCV783184, CARE Prospective",2/14
same,"2 Rare Alleles (%), Pravastatin Patients",[2],(19.4%)
same,"2 Rare Alleles n/total, Pravastatin Patients",[2],14/72
same,"2 Rare Alleles (%), Pravastatin Patients",[3],(20.9%)
same,"2 Rare Alleles n/total, Pravastatin Patients",[3],19/91
same,"2 Rare Alleles n/total, Pravastatin Patients","FABP1 hCV16173091, CARE Prospective",19/127 and 19/91
same,"2 rare alleles n/total (%), pravastatin patients","FCAR hCV7841642, Prospective",(12.5%)
same,"Pravastatin vs placebo odds ratio, 0 rare alleles","FCAR hCV7841642, Prospective",0.84
same,"Pravastatin vs placebo odds ratio, 1 rare allele","FCAR hCV7841642, Prospective",0.27
same,"Pravastatin vs placebo odds ratio, 2 rare alleles","FCAR hCV7841642, Prospective",0.43
same,"2 Rare Alleles (%), Pravastatin Patients",[4],(12.5%)
same,"2 Rare Alleles n/total, Pravastatin Patients",[4],1/8
same,"2 Rare Alleles (%), Pravastatin Patients",[5],(13.8%)
same,"2 Rare Alleles n/total, Pravastatin Patients",[5],12/87
same,"2 Rare Alleles (%), Pravastatin Patients",[6],(14.7%)
same,"2 Rare Alleles n/total, Pravastatin Patients",[6],5/34
same,"2 rare alleles n/total (%), pravastatin patients","GALC hCV25922440, Prospective",(14.7%)
same,"Pravastatin vs placebo odds ratio, 0 rare alleles","GALC hCV25922440, Prospective",0.94
same,"Pravastatin vs placebo odds ratio, 1 rare allele","GALC hCV25922440, Prospective",0.38
same,"Pravastatin vs placebo odds ratio, 2 rare alleles","GALC hCV25922440, Prospective",1.12
same,"2 Rare Alleles (%), Pravastatin Patients",[7],(7.5%)
same,"2 Rare Alleles n/total, Pravastatin Patients",[7],4/53 and 4/38
same,"2 Rare Alleles (%), Pravastatin Patients",[8],(10.5%)
same,"2 Rare Alleles n/total, Pravastatin Patients",[8],4/38
same,Pravastatin Patients (%),[9],(10.0%)
same,Pravastatin Patients n/total,[9],63/633
same,Pravastatin Patients (%),[10],(14.2%)
same,Pravastatin Patients n/total,[10],63/445
same,Pravastatin Patients (%),[11],(10.0%)
same,Pravastatin Patients n/total,[11],49/491
same,Pravastatin Patients (%),[12],(14.9%)
same,Pravastatin Patients n/total,[12],49/329
same,"2 rare alleles n/total (%), pravastatin patients",[13],(14.8%)
same,"Pravastatin vs placebo odds ratio, 0 rare alleles",[13],0.60 and 0.52
same,"Pravastatin vs placebo odds ratio, 1 rare allele",[13],0.87 and 0.80
same,"Pravastatin vs placebo odds ratio, 2 rare alleles",[13],5.02 and 5.41
same,"2 rare alleles n/total (%), pravastatin patients",[14],(14.8%)
same,"Pravastatin vs placebo odds ratio, 0 rare alleles",[14],0.62 and 0.55
same,"Pravastatin vs placebo odds ratio, 1 rare allele",[14],0.86 and 0.76
same,"Pravastatin vs placebo odds ratio, 2 rare alleles",[14],4.85 and 4.94
same,Pravastatin Patients (%),[15],(10.2%)
same,Pravastatin Patients n/total,[15],80/785
same,Pravastatin Patients (%),[16],(14.7%)
same,Pravastatin Patients n/total,[16],80/546
same,Pravastatin Patients (%),[17],(14.4%)
same,Pravastatin Patients n/total,[17],80/556
same,Pravastatin Patients (%),[18],(10.1%)
same,Pravastatin Patients n/total,[18],39/385
same,Pravastatin Patients (%),[19],(14.9%)
same,Pravastatin Patients n/total,[19],39/262
same,Pravastatin Patients (%),[20],(14.7%)
same,Pravastatin Patients n/total,[20],39/265
same,"2 Rare Alleles (%), Pravastatin Patients","HLA-DPB1 hCV8851084, CARE Prospective",(25.0%)
same,"2 rare alleles n/total (%), pravastatin patients",[21],(22.6%)
same,"Pravastatin vs placebo odds ratio, 0 rare alleles",[21],0.60
same,"Pravastatin vs placebo odds ratio, 1 rare allele",[21],0.84
same,"Pravastatin vs placebo odds ratio, 2 rare alleles",[21],5.83
same,"2 rare alleles n/total (%), pravastatin patients",[22],(22.6%)
same,"Pravastatin vs placebo odds ratio, 0 rare alleles",[22],0.61
same,"Pravastatin vs placebo odds ratio, 1 rare allele",[22],0.82
same,"Pravastatin vs placebo odds ratio, 2 rare alleles",[22],4.81
same,Pravastatin Patients (%),[23],(10.1%)
same,Pravastatin Patients n/total,[23],74/733
same,Pravastatin Patients (%),[24],(14.4%)
same,Pravastatin Patients n/total,[24],74/513
same,Pravastatin Patients (%),[25],(9.9%)
same,Pravastatin Patients n/total,[25],74/747
